Data on 11 molecules can be found in PubChem BioAssay AID1389 (Sanford-Burnham Center for Chemical Genomics, 2008).

The subject of this experiment is CSM14.1 cells, thapsigargin-induced ATF-4 Western blot. Kind of experiment: blockers of ATF-4 protein induction, late-stage follow-up, mechanism study for ER stress cell death inhibitors, CSM14.1 cells, thapsigargin, Western blot (AID 1389). Background: In western blotting, separated proteins are transferred to a membrane and probed.

The source made the active and inactive calls.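 The calls were made as follows: active = no visible ATF-4 stress protein band on the western blot after compound pretreatment and chemical ER stress; inactive = the rest.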

With `CCCOc1ccc(C2Nc3ccccc3NC3=C2C(=O)CC(c2ccc(OC)c(OC)c2)C3)cc1` (stereo unspecified), the result was active.
With `COc1ccc(C2CC(=O)C3=C(C2)Nc2ccccc2NC3c2cccc(Oc3ccccc3)c2)cc1OC` (stereo unspecified) the entry was “inactive”; with `COc1ccc(C2CC(=O)C3=C(C2)Nc2ccccc2NC3c2cccc(C(F)(F)F)c2)cc1OC` (stereo unspecified), “inactive”; with `CCOc1cc(C2Nc3ccccc3NC3=C2C(=O)CC(c2ccc(OC)cc2)C3)cc(Cl)c1O` (stereo unspecified), “inactive”.
Consider `CSc1ccc(C2Nc3ccccc3NC3=C2C(=O)CC(c2ccccc2)C3)cc1` (stereo unspecified), for which the result was inactive.
Take `CC1(C)CC(=O)C2=C(C1)Nc1ccccc1NC2c1ccc(-c2ccccc2)cc1` (stereo unspecified): the outcome was inactive.
Take `COc1ccc(C2CC(=O)C3=C(C2)Nc2ccccc2NC3c2cccc(Br)c2)cc1OC` (stereo unspecified): the result was inactive.
Consider `O=C1CC(c2ccccc2)CC2=C1C(c1c(F)cccc1Cl)Nc1ccccc1N2` (stereo unspecified), for which the outcome was inactive.
As to `COc1ccc(C2CC(=O)C3=C(C2)Nc2ccccc2NC3c2ccccc2C(F)(F)F)cc1OC` (stereo unspecified), the outcome was inactive.
On to `CCOc1cccc(C2Nc3ccccc3NC3=C2C(=O)CC(c2ccc(OC)cc2)C3)c1` (stereo unspecified), for which the result was inactive.
For `COc1ccc(C2CC(=O)C3=C(C2)Nc2ccccc2NC3c2cc(C)ccc2C)cc1` (stereo unspecified) the value was “active”.
